{
  "source": "ChEMBL document CHEMBL5696442",
  "about": "“Discovery of type II inhibitors of TGFβ-activated kinase 1 (TAK1) and mitogen-activated protein kinase kinase kinase kinase 2 (MAP4K2)” (J Med Chem, 2015)",
  "key": {"[1]": {"target": "T1, Serine/threonine-protein kinase D1 (Homo sapiens) (UniProt Q15139)", "T1 sequence (whole entry)": "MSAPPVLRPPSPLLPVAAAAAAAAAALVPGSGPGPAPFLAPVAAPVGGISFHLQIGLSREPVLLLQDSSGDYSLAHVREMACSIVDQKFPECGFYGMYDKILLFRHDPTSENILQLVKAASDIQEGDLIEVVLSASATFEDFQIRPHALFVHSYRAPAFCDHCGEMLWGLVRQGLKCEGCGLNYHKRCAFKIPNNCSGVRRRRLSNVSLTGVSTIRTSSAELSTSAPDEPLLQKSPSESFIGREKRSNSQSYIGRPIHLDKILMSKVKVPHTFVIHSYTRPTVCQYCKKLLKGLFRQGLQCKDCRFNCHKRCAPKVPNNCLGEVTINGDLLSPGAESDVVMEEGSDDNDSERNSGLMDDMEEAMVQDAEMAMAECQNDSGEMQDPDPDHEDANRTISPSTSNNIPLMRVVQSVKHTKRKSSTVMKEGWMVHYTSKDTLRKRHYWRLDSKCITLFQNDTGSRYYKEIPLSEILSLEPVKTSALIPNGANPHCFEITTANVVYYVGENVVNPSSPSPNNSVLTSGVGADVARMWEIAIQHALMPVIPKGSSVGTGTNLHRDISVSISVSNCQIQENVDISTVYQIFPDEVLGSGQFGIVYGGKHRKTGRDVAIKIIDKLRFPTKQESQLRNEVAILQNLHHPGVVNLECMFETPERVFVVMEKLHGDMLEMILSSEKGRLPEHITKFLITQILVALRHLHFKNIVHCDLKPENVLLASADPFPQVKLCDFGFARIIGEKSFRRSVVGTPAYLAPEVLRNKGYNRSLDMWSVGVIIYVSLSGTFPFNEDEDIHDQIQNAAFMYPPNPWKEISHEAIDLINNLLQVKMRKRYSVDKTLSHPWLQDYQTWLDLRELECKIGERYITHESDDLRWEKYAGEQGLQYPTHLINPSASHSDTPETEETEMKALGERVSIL", "assay": "Inhibition of PKD1 Lys2 labeling site in human Huh-7 cells at 1 uM by KiNativ Profiling analysis relative to control", "assay_type": "cell-based"}, "[2]": {"target": "Cyclin-dependent kinase 11B (Homo sapiens) (UniProt P21127)", "sequence (P21127 whole entry)": "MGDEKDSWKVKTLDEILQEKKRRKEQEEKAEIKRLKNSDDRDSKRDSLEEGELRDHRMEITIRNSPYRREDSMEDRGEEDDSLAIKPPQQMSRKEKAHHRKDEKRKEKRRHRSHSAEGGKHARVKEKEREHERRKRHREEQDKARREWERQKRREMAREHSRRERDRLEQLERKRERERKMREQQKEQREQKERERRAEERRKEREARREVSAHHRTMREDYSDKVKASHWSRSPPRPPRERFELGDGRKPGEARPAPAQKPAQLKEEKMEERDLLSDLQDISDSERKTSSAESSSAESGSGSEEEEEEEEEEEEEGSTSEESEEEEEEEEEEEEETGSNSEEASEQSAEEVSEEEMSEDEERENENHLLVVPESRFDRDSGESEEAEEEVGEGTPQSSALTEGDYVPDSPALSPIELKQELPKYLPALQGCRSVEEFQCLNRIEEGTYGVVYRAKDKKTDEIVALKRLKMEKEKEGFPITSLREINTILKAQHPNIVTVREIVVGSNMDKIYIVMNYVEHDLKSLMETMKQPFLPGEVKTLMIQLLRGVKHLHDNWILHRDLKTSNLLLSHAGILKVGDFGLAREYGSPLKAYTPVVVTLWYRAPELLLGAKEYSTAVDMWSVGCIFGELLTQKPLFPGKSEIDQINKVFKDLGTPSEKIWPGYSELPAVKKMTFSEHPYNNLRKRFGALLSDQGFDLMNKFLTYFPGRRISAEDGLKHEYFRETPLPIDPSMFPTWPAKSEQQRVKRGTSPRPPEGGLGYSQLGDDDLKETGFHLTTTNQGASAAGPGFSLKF", "assay": "Inhibition of CDK11 Lys2 labeling site in human Huh-7 cells at 1 uM by KiNativ Profiling analysis relative to control", "assay_type": "cell-based"}, "[3]": {"target": "T2, NUAK family SNF1-like kinase 1 (Homo sapiens) (UniProt O60285)", "T2 sequence (whole entry)": "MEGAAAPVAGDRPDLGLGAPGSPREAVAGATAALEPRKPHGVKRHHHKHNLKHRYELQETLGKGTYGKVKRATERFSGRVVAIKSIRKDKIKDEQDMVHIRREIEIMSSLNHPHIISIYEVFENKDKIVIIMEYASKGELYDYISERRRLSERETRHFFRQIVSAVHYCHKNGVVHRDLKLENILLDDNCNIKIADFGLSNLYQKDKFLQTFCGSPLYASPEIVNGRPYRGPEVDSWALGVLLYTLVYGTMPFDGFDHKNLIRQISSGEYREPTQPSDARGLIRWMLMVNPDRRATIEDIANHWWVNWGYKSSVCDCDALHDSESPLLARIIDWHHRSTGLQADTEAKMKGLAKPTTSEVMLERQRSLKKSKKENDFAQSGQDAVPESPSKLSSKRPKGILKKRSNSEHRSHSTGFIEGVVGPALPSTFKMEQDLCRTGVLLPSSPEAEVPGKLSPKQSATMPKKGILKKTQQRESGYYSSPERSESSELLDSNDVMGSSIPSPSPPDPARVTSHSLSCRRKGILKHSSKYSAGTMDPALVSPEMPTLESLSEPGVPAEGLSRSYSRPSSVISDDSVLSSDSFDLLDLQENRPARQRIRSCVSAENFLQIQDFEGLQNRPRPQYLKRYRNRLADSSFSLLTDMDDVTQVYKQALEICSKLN", "assay": "Inhibition of NuaK1 K2 labeling site in human Huh-7 cells at 1 uM by KiNativ Profiling analysis relative to control", "assay_type": "cell-based"}, "[4]": {"target": "T3, Serine/threonine-protein kinase Chk1 (Homo sapiens) (UniProt O14757)", "T3 sequence (whole entry)": "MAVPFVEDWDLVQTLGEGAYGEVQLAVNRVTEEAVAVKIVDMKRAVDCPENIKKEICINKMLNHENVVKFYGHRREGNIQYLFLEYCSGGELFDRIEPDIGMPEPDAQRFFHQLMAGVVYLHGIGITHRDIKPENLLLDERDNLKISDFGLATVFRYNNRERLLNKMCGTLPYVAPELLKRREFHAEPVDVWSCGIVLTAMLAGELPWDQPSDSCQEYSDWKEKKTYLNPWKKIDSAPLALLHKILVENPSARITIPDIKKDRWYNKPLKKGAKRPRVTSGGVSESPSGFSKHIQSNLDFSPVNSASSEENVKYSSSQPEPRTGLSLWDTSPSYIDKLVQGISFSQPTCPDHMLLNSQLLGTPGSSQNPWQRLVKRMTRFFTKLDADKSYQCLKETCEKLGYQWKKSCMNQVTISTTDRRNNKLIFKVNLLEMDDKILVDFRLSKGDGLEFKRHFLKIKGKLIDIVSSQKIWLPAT", "assay": "Inhibition of CHK1 Lys2 labeling site harbouring DIKPENLLLDERDNLK in human A-375 cells at 5 uM by KiNativ Profiling analysis relative to control", "assay_type": "cell-based"}, "[5]": {"target": "T4, Phosphorylase b kinase gamma catalytic chain, liver/testis isoform (Homo sapiens) (UniProt P15735)", "T4 sequence (whole entry)": "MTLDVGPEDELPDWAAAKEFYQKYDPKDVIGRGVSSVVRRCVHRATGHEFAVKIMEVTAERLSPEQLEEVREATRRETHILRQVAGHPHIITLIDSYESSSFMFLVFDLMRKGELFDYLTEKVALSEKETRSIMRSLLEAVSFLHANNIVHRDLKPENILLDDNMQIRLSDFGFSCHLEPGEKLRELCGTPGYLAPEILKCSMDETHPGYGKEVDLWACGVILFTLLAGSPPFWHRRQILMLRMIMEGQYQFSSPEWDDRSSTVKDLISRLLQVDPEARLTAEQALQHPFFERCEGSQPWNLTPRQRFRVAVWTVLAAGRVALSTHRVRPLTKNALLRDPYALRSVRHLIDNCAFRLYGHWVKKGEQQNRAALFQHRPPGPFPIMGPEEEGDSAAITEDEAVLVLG", "assay": "Inhibition of PHKG2 (unknown origin) at 1 uM by Ambit Kinomescan binding assay relative to control; values are per cent of control"}},
  "data": [
    {"smiles": "CNc1cc(Oc2cc(C(=O)Nc3cc(N4CCN(C)CC4)cc(C(F)(F)F)c3)ccc2C)ncn1", "values": [
      {"measurement": "inhibition", "setting": "[1]", "value": 9, "unit": "%"},
      {"measurement": "inhibition", "setting": "[2]", "value": 25.8, "unit": "%"}
    ]},
    {"smiles": "CCN1CCN(Cc2ccc(NC(=O)c3ccc(C)c(Oc4ccnc5[nH]ccc45)c3)cc2C(F)(F)F)CC1", "values": [
      {"measurement": "inhibition", "setting": "[3]", "value": -9.8, "unit": "%"},
      {"measurement": "inhibition", "setting": "[4]", "value": 32.3, "unit": "%"}
    ]},
    {"smiles": "CCN1CCN(Cc2ccc(NC(=O)c3ccc(C)c(/C=C/c4cnc5[nH]ccc5c4OC)c3)cc2C(F)(F)F)CC1", "values": [
      {"measurement": "residual activity", "setting": "[5]", "value": 100, "unit": "%"}
    ]}
  ]
}
